According to PubChem BioAssay (NCI):
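The compound was tested at five concentrations on cells cultured in 96-well plates, with a 48-hour exposure period. Abbreviation: GI50, concentration required for 50% inhibition of growth. TGI is the concentration that stops growth completely.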

Assays:
Assay in all cases: NCI anticancer screen, dose series, 48 h
[1] = tested on: 786-0 renal
[2] = tested on: A498 renal
[3] = tested on: A549 NSCLC
[4] = tested on: ACHN renal
[5] = tested on: BT-549 breast
[6] = tested on: CAKI-1 renal
[7] = tested on: COLO 205 colon
[8] = tested on: DU-145 prostate
[9] = tested on: EKVX NSCLC
[10] = tested on: HCT-116 colon
[11] = tested on: HCT-15 colon
[12] = tested on: HL-60(TB) leukemia
[13] = tested on: HOP-62 NSCLC
[14] = tested on: HOP-92 NSCLC
[15] = tested on: HS 578T breast
[16] = tested on: IGROV1 ovarian
[17] = tested on: LOX IMVI melanoma
[18] = tested on: M14 melanoma
[19] = tested on: MCF7 breast
[20] = tested on: MDA-MB-231 breast
[21] = tested on: MOLT-4 leukemia
[22] = tested on: NCI-H226 lung
[23] = tested on: NCI-H23 lung
[24] = tested on: NCI-H460 lung
[25] = tested on: NCI-H522 lung
[26] = tested on: OVCAR-3 ovarian
[27] = tested on: OVCAR-4 ovarian
[28] = tested on: OVCAR-5 ovarian
[29] = tested on: PC-3 prostate
[30] = tested on: RPMI-8226 leukemia
[31] = tested on: RXF 393 renal
[32] = tested on: SF-268 CNS
[33] = tested on: SF-295 CNS
[34] = tested on: SF-539 CNS
[35] = tested on: SK-MEL-2 melanoma
[36] = tested on: SK-MEL-5 melanoma
[37] = tested on: SK-OV-3 ovarian
[38] = tested on: SN12C renal
[39] = tested on: SNB-19 CNS
[40] = tested on: SNB-75 CNS
[41] = tested on: T-47D breast
[42] = tested on: TK-10 renal
[43] = tested on: U251 CNS
[44] = tested on: UACC-62 melanoma
[45] = tested on: HCC-2998 colon
[46] = tested on: MALME-3M melanoma
[47] = tested on: MDA-MB-435
[48] = tested on: MDA-MB-468 breast
[49] = tested on: NCI/ADR-RES ovarian
[50] = tested on: OVCAR-8 ovarian
[51] = tested on: SK-MEL-28 melanoma
[52] = tested on: SW-620 colon
[53] = tested on: UACC-257 melanoma
[54] = tested on: UO-31 renal

Compound: COc1cc2oc(-c3cccc(C(=O)Nc4cccc([N+](=O)[O-])c4)c3)cc(=O)c2c(OC)c1OC
- GI50 [1]: 3.68 µM
- TGI [1]: 21.7 µM
- GI50 [2]: 34.9 µM
- TGI [2]: > 100 µM
- GI50 [3]: 4.94 µM
- TGI [3]: > 100 µM
- GI50 [4]: 3.22 µM
- TGI [4]: > 100 µM
- GI50 [5]: 2.46 µM
- TGI [5]: 8.09 µM
- GI50 [6]: 2.86 µM
- TGI [6]: 10.9 µM
- GI50 [7]: > 100 µM
- TGI [7]: > 100 µM
- GI50 [8]: 4.77 µM
- TGI [8]: > 100 µM
- GI50 [9]: 7.32 µM
- TGI [9]: > 100 µM
- GI50 [10]: 3.57 µM
- TGI [10]: > 100 µM
- GI50 [11]: 5.25 µM
- TGI [11]: > 100 µM
- GI50 [12]: > 100 µM
- TGI [12]: > 100 µM
- GI50 [13]: 6.31 µM
- TGI [13]: 33.6 µM
- GI50 [14]: 5.46 µM
- TGI [14]: 42.4 µM
- GI50 [15]: 2.51 µM
- TGI [15]: 7.23 µM
- GI50 [16]: 7.99 µM
- TGI [16]: > 100 µM
- GI50 [17]: 5.73 µM
- TGI [17]: > 100 µM
- GI50 [18]: > 100 µM
- TGI [18]: > 100 µM
- GI50 [19]: 3.8 µM
- TGI [19]: > 100 µM
- GI50 [20]: 4.26 µM
- TGI [20]: > 100 µM
- GI50 [21]: > 100 µM
- TGI [21]: > 100 µM
- GI50 [22]: 2.29 µM
- TGI [22]: 7.38 µM
- GI50 [23]: 22.5 µM
- TGI [23]: > 100 µM
- GI50 [24]: 3.87 µM
- TGI [24]: > 100 µM
- GI50 [25]: 3.14 µM
- TGI [25]: 23.2 µM
- GI50 [26]: 4.44 µM
- TGI [26]: > 100 µM
- GI50 [27]: 2.72 µM
- TGI [27]: 9.09 µM
- GI50 [28]: > 100 µM
- TGI [28]: > 100 µM
- GI50 [29]: 3.55 µM
- TGI [29]: > 100 µM
- GI50 [30]: 2.88 µM
- TGI [30]: > 100 µM
- GI50 [31]: 2.28 µM
- TGI [31]: 18.8 µM
- GI50 [32]: 3.49 µM
- TGI [32]: > 100 µM
- GI50 [33]: 2.51 µM
- TGI [33]: 6.9 µM
- GI50 [34]: 4.4 µM
- TGI [34]: 41.7 µM
- GI50 [35]: 11.9 µM
- TGI [35]: > 100 µM
- GI50 [36]: 5.17 µM
- TGI [36]: > 100 µM
- GI50 [37]: 4.26 µM
- TGI [37]: > 100 µM
- GI50 [38]: 3.36 µM
- TGI [38]: > 100 µM
- GI50 [39]: 6.91 µM
- TGI [39]: 68.9 µM
- GI50 [40]: 1.99 µM
- TGI [40]: 6.08 µM
- GI50 [41]: 3.56 µM
- TGI [41]: > 100 µM
- GI50 [42]: 11.5 µM
- TGI [42]: 60.8 µM
- GI50 [43]: 6.69 µM
- TGI [43]: > 100 µM
- GI50 [44]: 4.92 µM
- TGI [44]: > 100 µM

Compound: O=C(CCl)Nc1ccc(C(=O)/C=C/c2cc3ccccc3nc2Cl)cc1
- GI50 [1]: 1.71 µM
- TGI [1]: 3.13 µM
- GI50 [2]: 12.7 µM
- TGI [2]: 25.6 µM
- GI50 [3]: 1.78 µM
- TGI [3]: 3.48 µM
- GI50 [4]: 1.72 µM
- TGI [4]: 3.09 µM
- GI50 [5]: 1.21 µM
- TGI [5]: 2.48 µM
- GI50 [6]: 1.61 µM
- TGI [6]: 2.98 µM
- GI50 [7]: 1.75 µM
- TGI [7]: 3.23 µM
- GI50 [8]: 1.76 µM
- TGI [8]: 3.17 µM
- GI50 [9]: 1.82 µM
- TGI [9]: 3.52 µM
- GI50 [45]: 1.58 µM
- TGI [45]: 2.96 µM
- GI50 [10]: 0.175 µM
- TGI [10]: 0.319 µM
- GI50 [11]: 1.24 µM
- TGI [11]: 2.61 µM
- GI50 [13]: 2.07 µM
- TGI [13]: 3.84 µM
- GI50 [14]: 1.89 µM
- TGI [14]: 3.83 µM
- GI50 [15]: 1.98 µM
- TGI [15]: 5.22 µM
- GI50 [16]: 1.58 µM
- TGI [16]: 3.16 µM
- GI50 [17]: 0.221 µM
- TGI [17]: 0.626 µM
- GI50 [18]: 1.57 µM
- TGI [18]: 3.04 µM
- GI50 [46]: 1.67 µM
- TGI [46]: 3.22 µM
- GI50 [19]: 0.294 µM
- TGI [19]: 1.43 µM
- GI50 [20]: 1.69 µM
- TGI [20]: 3.07 µM
- GI50 [47]: 1.12 µM
- TGI [47]: 2.35 µM
- GI50 [48]: 1.47 µM
- TGI [48]: 2.92 µM
- GI50 [22]: 1.9 µM
- TGI [22]: 4.82 µM
- GI50 [23]: 1.51 µM
- TGI [23]: 2.89 µM
- GI50 [24]: 1.72 µM
- TGI [24]: 3.33 µM
- GI50 [25]: 1.55 µM
- TGI [25]: 3.02 µM
- GI50 [49]: 2.16 µM
- TGI [49]: 4.81 µM
- GI50 [28]: 1.8 µM
- TGI [28]: 3.26 µM
- GI50 [50]: 1.89 µM
- TGI [50]: 4.08 µM
- GI50 [29]: 1.73 µM
- TGI [29]: 3.47 µM
- GI50 [31]: 1.56 µM
- TGI [31]: 2.98 µM
- GI50 [33]: 1.62 µM
- TGI [33]: 3.07 µM
- GI50 [34]: 1.67 µM
- TGI [34]: 3.03 µM
- GI50 [35]: 2.14 µM
- TGI [35]: 5.67 µM
- GI50 [51]: 1.88 µM
- TGI [51]: 3.66 µM
- GI50 [36]: 1.55 µM
- TGI [36]: 2.93 µM
- GI50 [37]: 3.63 µM
- TGI [37]: 12.1 µM
- GI50 [38]: 1.54 µM
- TGI [38]: 2.89 µM
- GI50 [39]: 1.66 µM
- TGI [39]: 3.13 µM
- GI50 [40]: 1.29 µM
- TGI [40]: 2.66 µM
- GI50 [52]: 0.523 µM
- TGI [52]: 1.83 µM
- GI50 [41]: 1.8 µM
- TGI [41]: 3.95 µM
- GI50 [42]: 1.95 µM
- TGI [42]: 4.58 µM
- GI50 [43]: 1.11 µM
- TGI [43]: 2.35 µM
- GI50 [53]: 1.62 µM
- TGI [53]: 3.23 µM
- GI50 [44]: 1.53 µM
- TGI [44]: 2.9 µM
- GI50 [54]: 1.41 µM
- TGI [54]: 2.71 µM
